Assay results reported in PMC8041284, “Tunable Methacrylamides for Covalent Ligand Directed Release Chemistry” (Journal of the American Chemical Society, 2021).

Target: BTK (Homo sapiens, UniProt Q06187)
Experiment: biochemical
Settings: read-out: BTK inhibition (%)

Chain of BTK (Q06187 402-655 limits assumed): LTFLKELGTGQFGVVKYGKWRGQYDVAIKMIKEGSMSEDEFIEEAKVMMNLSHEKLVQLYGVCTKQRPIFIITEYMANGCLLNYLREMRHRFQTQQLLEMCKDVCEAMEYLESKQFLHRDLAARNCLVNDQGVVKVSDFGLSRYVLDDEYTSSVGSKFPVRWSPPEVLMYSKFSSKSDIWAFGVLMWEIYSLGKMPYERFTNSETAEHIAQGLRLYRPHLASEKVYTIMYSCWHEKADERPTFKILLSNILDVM

Compound	inhibition at 10 µM [%]
Cc1cc(C(=O)CN2CCCC2)c(C)n1-c1ccc(F)cc1 [PCM-0215202]	5.4
CCOP(=O)(OCC)C(=Cc1cc(C(C)(C)C)c(O)c(C(C)(C)C)c1)P(=O)(OCC)OCC [PCM-0215676]	-11.6

Same assay, conditions: read-out: BTK inhibition (%), 0.75 uM BTK, […] probe 3l, 15 min preincubation

Compound	inhibition at 10 µM [%]
Cc1cc(N2C[C@@H](C)N[C@@H](C)C2)ncc1-c1ccc(-c2nc3c(ccn3C)c(=O)[nH]2)cc1 [PCM-0215615]	7.7
CNC(=O)c1cc(COc2nnc(Nc3ccc(Cl)cc3)c3ccoc23)ccn1 [PCM-0095270]	15.2
NS(=O)(=O)NCCNc1nonc1C(=Nc1ccc(F)c(Br)c1)NO [PCM-0215507]	-3.1
Cc1ccc(Sc2cncc3sc(C(N)=O)cc23)cc1 [PCM-0095339]	-3.9
C[C@H]1CCC/C=C/[C@@H]2C[C@H](O)C[C@H]2[C@H](O)/C=C/C(=O)O1 [PCM-0095573]	0.8
CC(C)C[C@H](NC(=O)CNC(=O)c1cc(Cl)ccc1Cl)B1OC(=O)CC(CC(=O)O)(C(=O)O)O1 (stereo partly shown) [PCM-0095225]	-2.1
CCCCCCCCCCCCCCCc1cccc(O)c1C(=O)O [PCM-0215370]	-19.3
CN(C)CCc1c[nH]c2ccc(Cn3cncn3)cc12 [PCM-0090241]	-3.1
COc1cccc(-c2cc(=O)c3ccccc3o2)c1N [PCM-0065604]	4.8
CC(C)NC(=O)C1CCC(n2c(NC(=O)c3ccc(F)cc3)nc3ccc(CN4CCC(C(C)(C)O)CC4)cc32)CC1 (stereo not shown) [PCM-0215859]	53.1
NC[C@@H]1O[C@H](O[C@H]2[C@@H](O)[C@H](O[C@@H]3[C@@H](O)[C@H](N)C[C@H](N)[C@H]3O[C@H]3O[C@H](CN)[C@@H](O)[C@H](O)[C@H]3N)O[C@@H]2CO)[C@H](N)[C@@H](O)[C@@H]1O [PCM-0095358]	4.3
CCOC(=O)c1c(C)n(C)c2ccc(O)cc12 [PCM-0095233]	-14
O=C(NC(Cc1cc(=O)[nH]c2ccccc12)C(=O)O)c1ccc(Cl)cc1 (stereo not shown) [PCM-0086359]	4.7
Oc1cc(O)c2c(c1)O[C@H](c1ccc(O)c(O)c1)[C@@H](O)C2 [PCM-0064631]	37.4
C[C@H]1O[C@H](O[C@H]2[C@H](O)[C@@H](O)[C@@H](O[C@@H]([C@H](O)[C@@H](O)C=O)[C@H](O)CO)O[C@@H]2CO)[C@H](O)[C@@H](O)[C@@H]1N[C@H]1C=C(CO)[C@@H](O)[C@H](O)[C@H]1O [PCM-0214720]	-7
C=CCc1cccc(/C=N/NC(=O)CN2CCN(Cc3ccccc3)CC2)c1O [PCM-0064890]	9
O=c1oc2cc(O)ccc2c2ccc(O)cc12 [PCM-0216079]	32.4
COC(=O)C1=C(C)NC(C)=C(C(=O)OC)C1c1ccccc1[N+](=O)[O-] [PCM-0064767]	14
C[C@H](CSC(=O)c1ccccc1)C(=O)N1C[C@@H](Sc2ccccc2)C[C@H]1C(=O)O [PCM-0216252]	-43.2
CC(C)[C@H](NC(=O)c1ccc2ccccc2n1)C(=O)N[C@@H](CC(=O)O)C(=O)COc1c(F)cccc1F [PCM-0215598]	7.7
CO[C@H]1C[C@@H]2CC[C@@H](C)[C@@](O)(O2)C(=O)C(=O)N2CCCC[C@H]2C(=O)O[C@H]([C@H](C)C[C@@H]2CC[C@H](n3cnnn3)[C@H](OC)C2)CC(=O)[C@H](C)/C=C(\C)[C@@H](O)[C@@H](OC)C(=O)[C@H](C)C[C@H](C)/C=C/C=C/C=C/1C [PCM-0215342]	3.4
O=C(c1cccc(Cl)c1F)N1CCN(Cc2cccc(Nc3nccs3)n2)CC1 [PCM-0215281]	68.3
C[C@H]1O[C@@H](O[C@H]2CC[C@@]3(C)[C@@H](CC[C@]4(C)[C@@H]3C=CC3=C5CC(C)(C)CC[C@]5(CO)[C@H](O)C[C@]34C)[C@]2(C)CO)[C@H](O)[C@@H](O[C@@H]2O[C@H](CO)[C@@H](O)[C@H](O)[C@H]2O)[C@H]1O [PCM-0216536]	5.4
NS(=O)(=O)c1ccc(NC(=S)N2CCN(C/C=C/c3ccccc3)CC2)cc1 [PCM-0215808]	2.3

Compound	inhibition at 10 µM [%]
CCc1cncnc1N1CCN(Cc2nc3ccc(C(F)(F)F)cc3[nH]2)CC1 [PCM-0065022]	-22.8
COc1cc(-c2oc3cc(O)cc(O)c3c(=O)c2O[C@@H]2O[C@H](CO[C@@H]3O[C@@H](C)[C@H](O)[C@@H](O)[C@H]3O)[C@@H](O)[C@H](O)[C@H]2O)ccc1O [PCM-0216322]	8.5
C[C@@H](O)[C@H]1C(=O)N2C(C(=O)OCOC(=O)C(C)(C)C)=C(SC3CN(C4=NCCS4)C3)[C@H](C)[C@H]12 [PCM-0214665]	4.7
C=CC(=C)C [PCM-0216155]	1.5
O=C[C@H](O)[C@@H](O)[C@H](O)[C@H](O)COP(=O)(O)O [PCM-0216185]	13.6
COc1c(C)c(C(=O)c2ccc(N)c(C(=O)O)c2)n2ccccc12 [PCM-0215263]	17.2
C=CC(=O)N1CC(N2CCN(C(=O)CNc3cc(C4(C)CC4)c(Cl)cc3O)CC2)C1 [PCM-0215823]	-9.3
COc1ccc(CC2c3cc(OC)c(OC)cc3CC[N+]2(C)CCC(=O)OCCCCCOC(=O)CC[N+]2(C)CCc3cc(OC)c(OC)cc3C2Cc2ccc(OC)c(OC)c2)cc1OC (stereo not shown) [PCM-0085763]	-16.3
CCc1cc(C(N)=S)ccn1 [PCM-0086071]	-14.8
NCc1ccc(S(N)(=O)=O)cc1 [PCM-0085773]	-28.8
C[C@@H]1CCC=C2C(=O)C[C@H]3OOC(C)(C)[C@H]3[C@]21C [PCM-0216386]	7.7
CN1CCCC(n2nc(Cc3ccc(Cl)cc3)c3ccccc3c2=O)CC1 (stereo not shown) [PCM-0086017]	5.5
Cc1noc(NS(=O)(=O)c2ccc(N)cc2)c1C [PCM-0085967]	10.9
O=c1[nH]c(=O)n([C@H]2C[C@H](O)[C@@H](CO)O2)cc1Br [PCM-0215515]	3.9
O=c1cc(-c2ccc(O)c(O)c2O)oc2ccccc12 [PCM-0215990]	34
CCNC(=O)C#Cc1ccc2c(C(=Nc3ccc(CN(C)C)cc3)c3ccccc3)c(O)[nH]c2c1 [PCM-0215488]	88.3
N#C/C(=C\c1ccc(-c2cc(Cl)ccc2Cl)o1)C(=O)Nc1cccc2ncccc12 [PCM-0215369]	22.4
O=C(Nc1nccs1)C(c1cc(F)ccc1O)N1Cc2ccccc2C1=O (stereo not shown) [PCM-0215692]	13.8
CC12CCC(CC1)C(C)(C)O2 [PCM-0215918]	11
N[C@@H](Cc1cc(I)c(O)c(I)c1)C(=O)O [PCM-0215163]	-31.9
COc1cc(/C=C/C(=O)O[C@H]2CC[C@]34C[C@]35CC[C@]3(C)[C@@H]([C@H](C)CCC=C(C)C)CC[C@@]3(C)[C@@H]5CC[C@H]4C2(C)C)ccc1O [PCM-0214964]	16.3
Cc1cn([C@H]2C[C@H](O)[C@@H](CO)O2)c(=O)[nH]c1=O [PCM-0215065]	-11.7
O=c1[nH]c([C@@H]2CCCN2)nc2c1oc1ccc(Cl)cc12 [PCM-0215335]	-0.9
Cc1nc(Nc2ccc(F)cc2)nc(N2CCc3ccccc3C2C)c1C (stereo not shown) [PCM-0216015]	79.3

Compound	inhibition at 10 µM [%]
Nc1nc(-c2ccco2)c2cnn(Cc3ccccc3F)c2n1 [PCM-0215878]	5.4
Cc1cn([C@H]2C=C[C@@H](CO)O2)c(=O)[nH]c1=O [PCM-0065071]	2.3
Nc1cc(F)ccc1NC(=O)/C=C/c1cnn(C/C=C/c2ccccc2)c1 [PCM-0095774]	9.3
CCCCCOc1ccccc1/C(=C\SC)n1ccnc1 [PCM-0215110]	-22.6
CC1=C(C(=O)Nc2ccc3[nH]ncc3c2)C(c2ccc(F)cc2)NC(=O)N1 (stereo not shown) [PCM-0215810]	19.3
CC(C)CCNC(=O)[C@H](CC(C)C)NC(=O)[C@H]1O[C@@H]1C(=O)O [PCM-0215302]	-16.2
CCCCCCCCN=c1ccn(CCCCCCCCCCn2ccc(=NCCCCCCCC)cc2)cc1 [PCM-0215117]	-64.1
CC1(C)C=C(CN2C/C(=C\c3ccc(F)cc3)C(=O)/C(=C/c3ccc(F)cc3)C2)C(C)(C)N1O [PCM-0095780]	9.3
CC(C)(C)C(=O)Oc1ccc(S(=O)(=O)Nc2ccccc2C(=O)NCC(=O)O)cc1 [PCM-0064760]	11.7
Oc1ccc(OC2CCCCO2)cc1 (stereo not shown) [PCM-0095551]	11.7
CC1(C)CC[C@]2(NC(=O)C(C)(F)F)CC[C@]3(C)[C@H](C(=O)C=C4[C@@]5(C)C=C(C#N)C(=O)C(C)(C)[C@@H]5CC[C@]43C)[C@@H]2C1 [PCM-0215505]	-10
CC1(C)OC[C@@H](COC(=O)CCc2ccc(OC[C@@H](O)CNCCNC(=O)N3CCOCC3)cc2)O1 [PCM-0216254]	-3.1
CN(CCOc1ccc(NS(C)(=O)=O)cc1)CCc1ccc(NS(C)(=O)=O)cc1 [PCM-0065138]	-7
O=C(O)[C@H]1O[C@@H](Oc2cc3oc(-c4ccccc4)cc(=O)c3c(O)c2O)[C@H](O)[C@@H](O)[C@@H]1O [PCM-0094823]	14.8
O=C(O)CCN1C(=O)/C(=C/c2ccc(-c3ccc([N+](=O)[O-])cc3)o2)SC1=S [PCM-0215696]	59.5
C1=Cc2ccccc2Nc2ccccc21 [PCM-0215149]	4.7
COC(=O)N1CCN(Cc2cccc(NC(=O)Nc3ccc(C)nc3)c2F)CC1 [PCM-0214694]	0.8
Oc1ccc2c(c1)OC[C@@H]1c3cc4c(cc3O[C@H]21)OCO4 [PCM-0216297]	-20.1
C/C(=C\C(=O)OCCCCCCCCC(=O)O)C[C@@H]1OC[C@H](C[C@@H]2O[C@H]2[C@@H](C)[C@H](C)O)[C@@H](O)[C@H]1O [PCM-0101899]	7
CCC(C)(Oc1ccc(C2(c3ccc(OC(C)(CC)C(=O)O)cc3)CCCCC2)cc1)C(=O)O (stereo not shown) [PCM-0095329]	15.6
O=C(c1ccc(F)c(F)c1Nc1ccc(I)cc1F)N1CC(O)([C@@H]2CCCCN2)C1 [PCM-0215480]	-5.5
CC1=CC[C@@H](C(C)(C)O)CC1 [PCM-0216214]	-20.8
C=CC(=O)N1CC/C(=C\c2ccc(F)c([N+](=O)[O-])c2)C(=O)/C(=C/c2ccc(F)c([N+](=O)[O-])c2)C1 [PCM-0215820]	31.7
